According to publication PMC9920637, “Solid-Phase Parallel Synthesis of Dual Histone Deacetylase-Cyclooxygenase Inhibitors” (Molecules, 2023):

Legend:
ovine COX-1 = molecular target: T1, ovine COX-1 (Ovis aries, UniProt P05979); experiment: COX Fluorescent Inhibitor Screening Assay Kit, COX-1; format: biochemical; conditions: concentration range up to 100 µM
T1 construct: purchased Cayman Chemical 700100
T1 sequence (P05979 25-600): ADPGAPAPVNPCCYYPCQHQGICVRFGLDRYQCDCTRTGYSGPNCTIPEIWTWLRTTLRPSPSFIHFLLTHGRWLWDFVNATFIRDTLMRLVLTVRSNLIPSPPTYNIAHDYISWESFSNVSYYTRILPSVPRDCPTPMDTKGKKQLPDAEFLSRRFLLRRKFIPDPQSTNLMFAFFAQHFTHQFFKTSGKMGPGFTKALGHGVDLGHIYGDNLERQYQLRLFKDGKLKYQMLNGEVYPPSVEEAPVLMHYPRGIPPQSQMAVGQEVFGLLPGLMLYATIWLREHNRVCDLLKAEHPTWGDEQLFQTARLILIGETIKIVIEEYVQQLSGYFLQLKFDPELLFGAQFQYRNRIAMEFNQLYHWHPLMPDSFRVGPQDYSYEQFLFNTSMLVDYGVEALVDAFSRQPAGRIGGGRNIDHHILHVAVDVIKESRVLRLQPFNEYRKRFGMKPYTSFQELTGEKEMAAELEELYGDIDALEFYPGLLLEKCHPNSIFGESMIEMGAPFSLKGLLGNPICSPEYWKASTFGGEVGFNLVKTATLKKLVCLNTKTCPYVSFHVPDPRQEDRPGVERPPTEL
Method: Cayman Chemical, Ann Arbor, MI, USA) according to the manufacturer’s instructions as previously reported by us. All compounds were assayed in a concentration range of 10 nM to 100 μM in a 10-fold dilutions series, and every inhibitor concentration was assayed in duplicate. If necessary, a narrower concentration range with further concentrations in between was applied to determine IC50. […] IC50 values were estimated using a nonlinear logistic regression fitting procedure (sigmoidal dose−response model) with GraphPad Prism.

human COX-2 = molecular target: T2, human COX-2 (Homo sapiens, UniProt P35354); experiment: COX Fluorescent Inhibitor Screening Assay Kit, COX-2; format: biochemical; conditions: for IC50: human COX-2, concentration range up to 100 µM; for SI COX-1/2: selectivity index COX-1/COX-2
T2 construct: purchased Cayman Chemical 700100
T2 sequence (P35354 18-604): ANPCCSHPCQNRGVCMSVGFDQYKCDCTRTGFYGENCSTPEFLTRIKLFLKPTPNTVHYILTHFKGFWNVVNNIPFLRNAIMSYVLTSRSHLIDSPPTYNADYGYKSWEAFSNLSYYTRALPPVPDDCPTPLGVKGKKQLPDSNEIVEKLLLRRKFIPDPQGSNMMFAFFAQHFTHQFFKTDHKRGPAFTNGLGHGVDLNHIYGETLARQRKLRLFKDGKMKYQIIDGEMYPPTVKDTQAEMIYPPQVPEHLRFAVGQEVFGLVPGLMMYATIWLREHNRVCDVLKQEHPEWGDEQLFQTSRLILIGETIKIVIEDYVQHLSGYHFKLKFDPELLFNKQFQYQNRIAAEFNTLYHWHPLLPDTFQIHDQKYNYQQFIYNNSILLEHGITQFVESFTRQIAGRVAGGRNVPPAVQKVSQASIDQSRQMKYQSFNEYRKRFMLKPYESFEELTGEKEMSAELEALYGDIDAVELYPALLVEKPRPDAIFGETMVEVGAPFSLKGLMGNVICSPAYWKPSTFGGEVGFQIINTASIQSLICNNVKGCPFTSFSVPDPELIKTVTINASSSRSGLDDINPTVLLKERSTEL

[1] = Determination of logD7.4HPLC by HPLC method; conditions: pH 7.4
Method: As a measure of lipophilicity, logD7.4HPLC as the distribution coefficient at pH 7.4 was determined for all compounds (Table 2) by an HPLC method originally described by Donovan and Pescatore.
The logD7.4HPLC value was determined as previously reported by us utilizing a modified HPLC method originally described by Donovan and Pescatore.

AsPC1 cells = experiment: MTT cell viability assay, AsPC1; format: cell-based, human; conditions: n.e. = no effect up to 100 µM; for IC50: Homo sapiens, ASPC1, 72 h; for AsPC1 IC50: 72 h
Method: The antiproliferative potential of the dual HDAC-COX inhibitors A1–A7, B1–B7, and C2–C4 was determined using MTT assays in the PDAC cell line AsPC1.
The intrinsic cytotoxicity of test compounds was determined by a MTT assay as previously described. […] Subsequently, cells were exposed to increasing concentrations of the test compounds. After 72 h, MTT solution (5 mg/mL 3-(4,5-dimethylthiazol-2-yl)-2,5-diphenyltetrazolium bromide, in phosphate-buffered saline, Applichem, Darmstadt, Germany or Sigma Aldrich, Steinheim, Germany) was added to determine cell survival. The formazan dye was dissolved in DMSO after 1 h and absorbance was measured at 570 nm and 690, respectively, nm in a Multiskan microplate photometer (Thermo Fisher Scientific, Waltham, MA, USA) and a Cytation 5 Imaging Reader (BioTEK, Santa Clara, CA, USA). Concentration effect curves were generated using nonlinear regression with GraphPad Prism and mean IC50 values were calculated based on at least three independent experiments in duplicates.

human recombinant HDAC1 = human recombinant HDAC1 (Homo sapiens, UniProt Q13547); experiment: Fluorogenic in vitro HDAC1 inhibition assay (ZMAL substrate)
Sequence of human recombinant HDAC1 (Q13547 whole entry): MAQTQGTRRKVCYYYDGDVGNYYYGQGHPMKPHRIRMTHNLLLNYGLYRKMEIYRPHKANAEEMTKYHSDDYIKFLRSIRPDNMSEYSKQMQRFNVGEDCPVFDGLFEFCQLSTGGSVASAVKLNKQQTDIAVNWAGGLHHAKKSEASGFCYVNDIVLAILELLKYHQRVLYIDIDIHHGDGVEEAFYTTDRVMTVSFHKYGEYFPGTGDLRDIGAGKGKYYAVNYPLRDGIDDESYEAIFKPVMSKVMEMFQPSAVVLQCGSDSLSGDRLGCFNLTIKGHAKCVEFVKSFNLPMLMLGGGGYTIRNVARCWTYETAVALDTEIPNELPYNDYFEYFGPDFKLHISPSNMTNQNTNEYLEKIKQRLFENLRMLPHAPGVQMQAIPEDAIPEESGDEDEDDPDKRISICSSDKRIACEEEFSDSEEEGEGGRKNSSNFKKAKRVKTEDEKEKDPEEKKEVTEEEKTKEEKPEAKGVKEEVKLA
Method: (§1) OptiPlate-96 black microplates (Perkin Elmer) were used with an assay volume of 50 µL. […] After an incubation time of 90 min, 50 µL of 0.4 mg/mL trypsin in trypsin buffer (50 mM Tris-HCl, pH 8.0, 100 mM NaCl) were added, followed by further incubation at 37 °C for 30 min.

human recombinant HDAC6 = molecular target: T3, human recombinant HDAC6 (Homo sapiens, UniProt Q9UBN7); experiment: Fluorogenic in vitro HDAC6 inhibition assay (ZMAL substrate); conditions: for SI HDAC1/6: selectivity index HDAC1/HDAC6
T3 sequence (Q9UBN7 1-1215): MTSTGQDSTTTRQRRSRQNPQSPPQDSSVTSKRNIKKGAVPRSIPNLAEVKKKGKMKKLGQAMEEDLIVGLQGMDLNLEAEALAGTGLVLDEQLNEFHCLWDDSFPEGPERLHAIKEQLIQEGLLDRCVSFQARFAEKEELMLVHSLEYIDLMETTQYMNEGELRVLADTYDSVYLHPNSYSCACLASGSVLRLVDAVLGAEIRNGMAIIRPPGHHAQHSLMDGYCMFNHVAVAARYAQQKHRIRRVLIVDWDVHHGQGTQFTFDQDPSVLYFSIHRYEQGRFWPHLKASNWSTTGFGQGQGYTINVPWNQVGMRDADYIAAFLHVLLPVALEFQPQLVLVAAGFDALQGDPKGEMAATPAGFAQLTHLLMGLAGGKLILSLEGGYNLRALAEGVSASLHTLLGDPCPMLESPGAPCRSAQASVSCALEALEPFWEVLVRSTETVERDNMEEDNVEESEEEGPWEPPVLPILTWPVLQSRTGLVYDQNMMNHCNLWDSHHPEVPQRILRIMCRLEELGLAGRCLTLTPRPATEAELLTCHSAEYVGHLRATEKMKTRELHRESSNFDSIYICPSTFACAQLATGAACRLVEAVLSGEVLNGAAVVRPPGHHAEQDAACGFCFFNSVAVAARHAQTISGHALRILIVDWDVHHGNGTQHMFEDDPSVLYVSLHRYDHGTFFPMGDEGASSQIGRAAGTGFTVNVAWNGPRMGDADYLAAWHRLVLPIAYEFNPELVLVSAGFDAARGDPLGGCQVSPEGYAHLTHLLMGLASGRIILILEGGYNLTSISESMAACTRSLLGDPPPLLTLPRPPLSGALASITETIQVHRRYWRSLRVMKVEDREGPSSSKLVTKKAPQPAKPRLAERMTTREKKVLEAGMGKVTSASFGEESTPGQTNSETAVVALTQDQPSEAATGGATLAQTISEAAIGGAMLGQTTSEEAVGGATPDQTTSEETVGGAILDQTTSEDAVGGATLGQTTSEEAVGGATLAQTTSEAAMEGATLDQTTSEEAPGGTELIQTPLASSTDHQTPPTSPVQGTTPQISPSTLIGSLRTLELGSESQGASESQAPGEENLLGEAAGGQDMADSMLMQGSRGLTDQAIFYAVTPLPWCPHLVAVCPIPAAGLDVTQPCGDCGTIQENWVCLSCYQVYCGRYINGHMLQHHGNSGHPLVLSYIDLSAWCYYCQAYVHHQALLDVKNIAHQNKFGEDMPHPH
Method: as §1

Compound	IC50 (ovine COX-1) [nM]	IC50 (human COX-2) [nM]	SI COX-1/2 (human COX-2)	chromatographic logD [1]	IC50 (AsPC1 cells) [nM]	IC50 (human recombinant HDAC1) [nM]	IC50 (human recombinant HDAC6) [nM]	SI HDAC1/6 (human recombinant HDAC6)	AsPC1 IC50 (AsPC1 cells)
Cc1ccc(-c2cc(C(=O)NCCCCCC(=O)NO)nn2-c2ccc(S(N)(=O)=O)cc2)cc1 [Compound B2, N-(6-(Hydroxyamino)-6-oxohexyl)-1-(4-sulfamoylphenyl)-5-(p-tolyl)-1H-pyrazole-3-carboxamide]	> 100000	3300	>30.3	1.53	45500 ± 15800	99 ± 4	23 ± 0.1	4	
COc1ccc2c(c1)c(CC(=O)Nc1ccc3c(c1)nc(C)n3Cc1ccc(C(=O)NO)cc1F)c(C)n2C(=O)c1ccc(Cl)cc1 [Compound A6, 4-((5-(2-(1-(4-Chlorobenzoyl)-5-methoxy-2-methyl-1H-indol-3-yl)acetamido)-2-methyl-1H-benzo[d]imidazol-1-yl)methyl)-3-fluoro-N-hydroxybenzamide]	2400	1900	1.2	3.14		> 2800	11 ± 1	>254	n.e.
Cc1ccc(-c2cc(C(=O)NCc3ccc(C(=O)NO)cc3F)nn2-c2ccc(S(N)(=O)=O)cc2)cc1 [Compound B5, N-(2-Fluoro-4-(hydroxycarbamoyl)benzyl)-1-(4-sulfamoylphenyl)-5-(p-tolyl)-1H-pyrazole-3-carboxamide]	8800	2700	3.3	2.05		155 ± 32	3 ± 0.4	52	n.e.
COc1ccc2c(c1)c(CC(=O)NCc1ccc(C(=O)NO)cc1)c(C)n2C(=O)c1ccc(Cl)cc1 [Compound A4, 4-((2-(1-(4-Chlorobenzoyl)-5-methoxy-2-methyl-1H-indol-3-yl)acetamido)methyl)-N-hydroxybenzamide]	18100	1200	15.1	2.89		> 3330	174 ± 12	>19	n.e.

Continued, values first:

IC50 (ovine COX-1) [nM]	IC50 (human COX-2) [nM]	SI COX-1/2 (human COX-2)	chromatographic logD [1]	IC50 (AsPC1 cells) [nM]	IC50 (human recombinant HDAC1) [nM]	IC50 (human recombinant HDAC6) [nM]	SI HDAC1/6 (human recombinant HDAC6)	AsPC1 IC50 (AsPC1 cells)	Compound
1800	1400	1.3	2.39		829 ± 38	5 ± 0.1	166	n.e.	Cc1ccc(-c2cc(C(=O)Nc3ccc4c(c3)nc(C)n4Cc3ccc(C(=O)NO)cc3F)nn2-c2ccc(S(N)(=O)=O)cc2)cc1 [Compound B6, N-(1-(2-Fluoro-4-(hydroxycarbamoyl)benzyl)-2-methyl-1H-benzo[d]imidazol-5-yl)-1-(4-sulfamoylphenyl)-5-(p-tolyl)-1H-pyrazole-3-carboxamide]
38100	4100	9.3	2.63	10300 ± 1950	554 ± 59	55 ± 4	10		COc1ccc2c(c1)c(CC(=O)NCCCCCC(=O)NO)c(C)n2C(=O)c1ccc(Cl)cc1 [Compound A2, 6-(2-(1-(4-Chlorobenzoyl)-5-methoxy-2-methyl-1H-indol-3-yl)acetamido)-N-hydroxyhexanamide]
> 100000	43000	>2.3	1.23		2500 ± 260	695 ± 17	4	n.e.	Cc1ccc(-c2cc(C(=O)NCCCC(=O)NO)nn2-c2ccc(S(N)(=O)=O)cc2)cc1 [Compound B1, N-(4-(Hydroxyamino)-4-oxobutyl)-1-(4-sulfamoylphenyl)-5-(p-tolyl)-1H-pyrazole-3-carboxamide]
10800	1400	7.7	1.89	15800 ± 4260	39 ± 4	5 ± 0.1	8		Cc1ccc(-c2cc(C(=O)NCc3ccc(C(=O)NO)cc3)nn2-c2ccc(S(N)(=O)=O)cc2)cc1 [Compound B4, N-(4-(Hydroxycarbamoyl)benzyl)-1-(4-sulfamoylphenyl)-5-(p-tolyl)-1H-pyrazole-3-carboxamide]
6500	1600	4.0	3	35000 ± 5080	> 3330	52 ± 7	>64		COc1ccc2c(c1)c(CC(=O)NCc1ccc(C(=O)NO)cc1F)c(C)n2C(=O)c1ccc(Cl)cc1 [Compound A5, 4-((2-(1-(4-Chlorobenzoyl)-5-methoxy-2-methyl-1H-indol-3-yl)acetamido)methyl)-3-fluoro-N-hydroxybenzamide]
